From publication PMC12520456, “Regulating Enzyme Activity via Microaggregates Mediated by Phase Separation” (Advanced Science, 2025)
Non-standard residues stand in square brackets, D forms with d. Residues, ends and D or L forms follow the SMILES beside them.

Key:
Trypsin = Trypsin activity assay (BAEE); format: biochemical; conditions: Figure 2C
Method: Then, cells were co-incubated with Cy5-labeled proteins (trypsinCy5 and chymotrypsinCy5) and DPMD treated proteins Cy5 for 30 min. Subsequently, cells were washed thrice with PBS, fixed with 4% paraformaldehyde, and the nucleus was dyed with DAPI. Observations were performed using a confocal microscope (Olympus, FV3000). This experiment was repeated three independent times. The mean fluorescence intensity was measured using Image J software. The fluorescence values were calculated after background subtraction (fluorescence intensity of regions without cells).
3.8 Measurements of ThT fluorescence
The 0.5% (w/v) aqueous peptide solutions, enzyme solutions, and peptide-enzyme mixtures were supplemented with thioflavin T (ThT, 100 μM, Aladdin). ThT Fluorescence assay was measured on a Steady-state and lifetime Fluorescence Spectrometer (FLS1000). […]
and the product's absorbance at […] was dynamically and real-time monitored using a microplate […]
During the chymotrypsin activity assay, DPMD was incorporated into chymotrypsin. […] The reaction was carried out at 25 ℃, and the product's absorbance at 256 nm was dynamically and real-time monitored using a microplate reader. […]
NIH-3T3 cells were obtained from the National Collection of Authenticated Cell Cultures. […] Cell viability was evaluated by the CCK-8 assay (Dojindo) at 1-, 3-, 5-, and 7-days post-treatment. […]

[1] = Animal fluorescence imaging, tissue distribution and urine; format: in vivo, rat
Method: To assess the fate of DPMD in vivo, rats were administered DPMD intraperitoneally and monitored using in vivo fluorescence imaging.
Figure S14. (A) The cell viability test of NIH-3T3 or HUVEC cells co-cultured with different concentrations DPMD.
(B) The apoptosis evaluation of NIH-3T3 or HUVEC co-cultured with DPMD, DPMD & Trypsin, DPMD & Chymotrypsin by flow cytometry. (C) Tissue distribution and quantification of DPMD in […] organs measured by IVIS (n=3/point). The fluorescence signal from the organs after DPMD intraperitoneal injection (1 ml, 0.5%) at 1h, 2-day, 3-day, 4-day, 5-day, 6-day, 7-day. (D) The evaluation of distribution DMPD in urine.
(1 picture or pasted object on this page, not shown here) […]
was performed using an Annexin V-Alexa Fluor 647/PI kit (Solarbio) according to the manufacturer’ s protocol. Briefly, adherent cells were detached with 0.25% EDTA-free trypsin, combined with floating cells from the supernatant. The pellet was washed twice with cold PBS and resuspended in 100 μL of 1× binding buffer. […] Samples were analyzed within 1h on a Sony MA900 flow cytometer.
3.12 Animal fluorescence imaging
Rats were intraperitoneally injected with 1 mL of rhodamine-labeled 0.5% (w/v) DPMD. […] The fluorescence emission intensity of the organs was measured using IVIS Spectrum system (PerkinElmer). […]

Compound: CC[C@@H](C)[C@@H](NC(=O)[C@@H](CCC(N)=O)NC(=O)[C@H](NC(=O)[C@@H](Cc1ccc(O)cc1)NC(=O)CNC(=O)[C@@H](CC(C)C)NC(=O)[C@H](NC(=O)[C@@H](CO)NC(=O)CNC(=O)[C@@H](C)NC(=O)[C@@H](CC(=O)O)NC(=O)[C@@H](C)NC(=O)[C@@H](CCCNC(=N)N)NC(=O)[C@@H](C)NC(=O)[C@@H](CC(=O)O)NC(=O)[C@@H](C)NC(=O)[C@@H](CCCNC(=N)N)NC(=O)[C@@H](C)NC(=O)[C@@H](CC(=O)O)NC(=O)[C@@H](C)NC(=O)[C@@H](CCCNC(=N)N)NC(=O)[C@@H](C)NC(=O)[C@@H](CC(=O)O)NC(=O)[C@@H](C)NC(=O)[C@H](N)CCCNC(=N)N)C(C)C)[C@H](C)CC)C(=O)N[C@H](CCCNC(=N)N)C(=O)O [DPMD, Ac‐(D‐RADA)4‐CONH2] (H-[dR][dA][dD][dA][dR][dA][dD][dA][dR][dA][dD][dA][dR][dA][dD][dA]G[dS][dV][dL]G[dY][dI][dQ][dI][dR]-OH; N-terminus and C-terminus assumed)
- suppression of enzymatic activity of Trypsin (Trypsin): almost complete extent
- fluorescence intensity in organs (liver, kidneys, spleen) ([1]; 1 mL rhodamine-labeled 0.5% (w/v) DPMD intraperitoneally, IVIS, day 6 post-injection, n=3/point): barely detectable
- fluorescence in urine samples ([1]; labeled DPMD intraperitoneally, Figure S14D): fluorescence appeared in urine samples
